Patent US20240287074A1, “SALTS AND CRYSTALS” (Kinoxis Therapeutics Pty Ltd, priority 2020, published 2024)
Where a name gives a salt, the structure may show the parent alone.

Experiment: Primary salt screen: XRPD pattern after drying and after 40° C./75% RH
Type: physicochemical
Settings: for Post-Drying (XRPD pattern): oven at 40° C. for about 24 hours; for Post 40° C./75% RH (XRPD pattern): stability chamber at 40° C./75% RH for about 24 hours; for Comments (stability): salt screen summary
Procedure: The following procedure was used: • Approximately 30 mg of 1-methyl-1,4,5,10-tetrahydropyrazolo[3,4-b][1,5]benzodiazepine freebase was weighed into 5×1.5 mL glass vials. • 300 μL of selected solvent system was added to each vial to form a mobile slurry, and a beige slurry was observed. • 1.05 (or 0.525 for the hemi experiments) equivalents of acid counterion (see Table 1) was added to each sample and initial observations were recorded. • The samples were temperature cycled between ambient and 40° C. in 4-hour cycles for about 72 hours. • The samples were collected, and observations made. • Samples in which solids were observed were filtered via centrifugation and the solids were loaded onto a multi-well XRPD plate and analyzed by XRPD. • Samples in which no solids were observed were uncapped and left undisturbed to allow evaporation at ambient temperature.

Post-Drying (XRPD pattern) | Post 40° C./75% RH (XRPD pattern) | Comments (stability) | Structure (SMILES)
Pattern 1 | Pattern 2 |  | Cn1ncc2c1Nc1ccccc1NC2 [Esylate pattern 1]
Pattern 1 | Pattern 2 | Good | Cn1ncc2c1Nc1ccccc1NC2 [Edisylate pattern 1]
Pattern 3 | Pattern 3 |  | Cn1ncc2c1Nc1ccccc1NC2 [Sulfate pattern 3]
Pattern 1 | Pattern 1 | Good | Cn1ncc2c1Nc1ccccc1NC2 [Napadisylate pattern 1]
Pattern 2 | Pattern 2 |  | Cn1ncc2c1Nc1ccccc1NC2 [Edisylate pattern 2]
Pattern 1 | Pattern 4 |  | Cn1ncc2c1Nc1ccccc1NC2 [Sulfate pattern 1]
Pattern 1 | Pattern 1 |  | Cn1ncc2c1Nc1ccccc1NC2 [Maleate pattern 1]
Pattern 3 | Pattern 3 |  | Cn1ncc2c1Nc1ccccc1NC2 [Tosylate pattern 3]
Pattern 1 | Pattern 1 | Good | Cn1ncc2c1Nc1ccccc1NC2 [Hydrobromide pattern 1]
Pattern 2 | Pattern 2 |  | Cn1ncc2c1Nc1ccccc1NC2 [Napadisylate pattern 2]
Pattern 2 | Pattern 2 |  | Cn1ncc2c1Nc1ccccc1NC2 [Sulfate pattern 2]
Pattern 1 | Pattern 1/2 |  | Cn1ncc2c1Nc1ccccc1NC2 [Mesylate pattern 1]
Pattern 1 | Pattern 3 |  | Cn1ncc2c1Nc1ccccc1NC2 [Isethionate pattern 1]
Pattern 2 | Pattern 1 |  | Cn1ncc2c1Nc1ccccc1NC2 [Mesylate pattern 2]
Pattern 2 | Pattern 2 |  | Cn1ncc2c1Nc1ccccc1NC2 [Napsylate pattern 2]
Pattern 1 | Pattern 1 | Good | Cn1ncc2c1Nc1ccccc1NC2 [Tosylate pattern 1]
Pattern 2 | Pattern 2 |  | Cn1ncc2c1Nc1ccccc1NC2 [Esylate pattern 2]
Pattern 2 | Pattern 2 |  | Cn1ncc2c1Nc1ccccc1NC2 [Tosylate pattern 2]
Pattern 2 | Pattern 3 |  | Cn1ncc2c1Nc1ccccc1NC2 [Isethionate pattern 2]
Pattern 3 | Deliquesced |  | Cn1ncc2c1Nc1ccccc1NC2 [Mesylate pattern 3]
Pattern 2 | Pattern 2 |  | Cn1ncc2c1Nc1ccccc1NC2 [Hydrobromide pattern 2]
Pattern 1 | Pattern 2 | Good | Cn1ncc2c1Nc1ccccc1NC2 [Napsylate pattern 1]
Pattern 1 | Pattern 1, 2 |  | Cn1ncc2c1Nc1ccccc1NC2 [Besylate pattern 1]
